Laboratory results: US12331054B2, “Perk inhibiting imidazolopyrazine compounds” (HiberCell, Inc., priority 2019, dated 2025)

Key:
[1] = target: Recombinant human EIF2AK3 (PERK) catalytic domain (amino acids 536-1116) (Homo sapiens (Human), UniProt Q9NZJ5); assay: PERK In Vitro Activity Assay (isolated), TR-FRET kinase assay; settings: isolated PERK enzyme, 1.5 μM ATP, read-out: Biochemical IC50
In short: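 Recombinant PERK catalytic domain was incubated with 100–200 nM GFP-eIF2a substrate in 50 mM HEPES pH 7.5, 10 mM MgCl2, 1.0 mM EGTA and 0.01% Brij-35 for 45 min at room temperature. After a 10 mM EDTA stop, 2 nM Tb-anti-phospho-eIF2a was added for 90 min, and IC50 was fitted from TR-FRET ratios by 4-parameter logistic regression.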

[2] = system: eIF2α in HEK293-EGFP-eIF2α cells; assay: PERK Cellular Assay (HEK293-EGFP-eIF2α cells, tunicamycin-induced ER stress, TR-FRET); type: cell-based; settings: tunicamycin 2 hours
In short: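 Cells pre-incubated with inhibitor 30 min at 37 °C, then ER stress induced with […] tunicamycin for 2 h. TR-FRET read on lysates; ratio normalized to DMSO control as percent inhibition over a 10-point, 3-fold dilution series; IC50 from 4-parameter logistic fit.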

Chain of Recombinant human EIF2AK3 (PERK) catalytic domain (amino acids 536-1116) (Q9NZJ5 536-1116): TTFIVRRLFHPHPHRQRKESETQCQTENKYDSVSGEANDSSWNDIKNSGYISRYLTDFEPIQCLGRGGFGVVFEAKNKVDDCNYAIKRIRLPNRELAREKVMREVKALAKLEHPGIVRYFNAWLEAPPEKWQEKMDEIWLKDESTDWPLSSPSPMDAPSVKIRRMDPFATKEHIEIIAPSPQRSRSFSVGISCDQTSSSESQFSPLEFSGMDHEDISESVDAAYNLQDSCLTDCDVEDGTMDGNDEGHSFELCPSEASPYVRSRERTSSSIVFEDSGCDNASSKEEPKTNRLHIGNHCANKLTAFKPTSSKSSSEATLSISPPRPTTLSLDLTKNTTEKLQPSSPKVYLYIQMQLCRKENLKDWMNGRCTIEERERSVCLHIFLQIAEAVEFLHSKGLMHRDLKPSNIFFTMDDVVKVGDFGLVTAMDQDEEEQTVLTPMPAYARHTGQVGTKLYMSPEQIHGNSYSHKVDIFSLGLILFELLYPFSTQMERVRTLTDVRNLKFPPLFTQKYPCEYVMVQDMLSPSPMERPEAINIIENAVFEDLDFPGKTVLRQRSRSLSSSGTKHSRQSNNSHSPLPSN

Row | SMILES | IC50 [1] | IC50 [2] | IC50 ([2]; 2 h)
1 | [2H]C([2H])([2H])c1nc(-c2cnc(NC(=O)C(O)c3cccc(C(F)(F)F)c3)cc2C)c2c(N)nc(C)cn12 (centres unmarked) [Example 182, N-[5-[8-amino-6-methyl-3-(trideuteriomethyl)imidazo[1,5-a]pyrazin-1-yl]-4-methyl-2-pyridyl]-2-hydroxy-2-[3-(trifluoromethyl)phenyl]acetamide] | 1 to 25 nM | 101 to 250 nM | 
2 | [2H]C([2H])([2H])c1nc(-c2ccc(NC(=O)C(O)c3cc(F)cc(C(F)(F)F)c3)c(F)c2F)c2c(N)ncc(Cl)n12 (centres unmarked) [Example 165, N-[4-[8-amino-5-chloro-3-(trideuteriomethyl)imidazo[1,5-a]pyrazin-1-yl]-2,3-difluoro-phenyl]-2-[3-fluoro-5-(trifluoromethyl)phenyl]-2-hydroxy-acetamide] | 26 to 50 nM | 101 to 250 nM | 
3 | [2H]C([2H])([2H])c1nc(-c2ccc(NC(=O)C(O)c3cccc(C(F)(F)F)c3)c(F)c2F)c2c(N)ncc(C(F)(F)F)n12 (centres unmarked) [Example 149, N-[4-[8-amino-3-(trideuteriomethyl)-5-(trifluoromethyl)imidazo[1,5-a]pyrazin-1-yl]-2,3-difluoro-phenyl]-2-hydroxy-2-[3-(trifluoromethyl)phenyl]acetamide] | 501 to 1000 nM | 251 to 500 nM | 
4 | [2H]C([2H])([2H])c1nc(-c2ccc(NC(=O)C(O)c3cccc(Cl)c3)c(F)c2F)c2c(N)ncc(Cl)n12 (centres unmarked) [Example 145, N-[4-[8-amino-5-chloro-3-(trideuteriomethyl)imidazo[1,5-a]pyrazin-1-yl]-2,3-difluoro-phenyl]-2-(3-chlorophenyl)-2-hydroxy-acetamide] | 1 to 25 nM | 1 to 25 nM | 
5 | Cc1cc(NC(=O)C(O)c2cc(F)cc(C(F)(F)F)c2)ccc1-c1nc(C)n2c(C)cnc(N)c12 (centres unmarked) [Example 58, N-(4-(8-amino-3,5-dimethylimidazo [1,5-a]pyrazin-1-yl)-3-methylphenyl)-2-(3-fluoro-5-(trifluoromethyl)phenyl)-2-hydroxyacetamide] | 1 to 25 nM | 26 to 50 nM | 
6 | Cc1cnc(N)c2c(-c3ccc(NC(=O)C(O)c4cccc(Cl)c4)cc3F)nc(C)n12 (centres unmarked) [Example 78, N-(4-(8-amino-3,5-dimethylimidazo [1,5-a]pyrazin-1-yl)-3-fluorophenyl)-2-(3-chlorophenyl)-2-hydroxy-acetamide] | 1 to 25 nM |  | 1 to 25 nM
7 | [2H]C([2H])([2H])c1nc(-c2ccc(NC(=O)C(O)c3cccc(F)c3)c(F)c2F)c2c(N)nc(C)cn12 (centres unmarked) [Example 131, N-[4-[8-amino-6-methyl-3-(trideuteriomethyl)imidazo[1,5-a]pyrazin-1-yl]-2,3-difluoro-phenyl]-2-(3-fluoro-phenyl)-2-hydroxy-acetamide] | 501 to 1000 nM | 3000 to 4000 nM | 
8 | [2H]C([2H])([2H])c1nc(-c2ccc(NC(=O)C(O)c3cccc(Cl)c3)cc2C)c2c(N)ncc(C)n12 (centres unmarked) [Example 36, N-[4-[8-amino-5-methyl-3-(trideuteriomethyl)imidazo[1,5-a]pyrazin-1-yl]-3-methyl-phenyl]-2-(3-chlorophenyl)-2-hydroxy-acetamide] | 1 to 25 nM | 1 to 25 nM | 
9 | [2H]C([2H])([2H])c1nc(-c2ccc(NC(=O)C(O)c3cc(F)cc(C(F)(F)F)c3)cc2F)c2c(N)ncc(C)n12 (centres unmarked) [Example 111, N-[4-[8-amino-5-methyl-3-(trideuteriomethyl)imidazo[1,5-a]pyrazin-1-yl]-3-fluoro-phenyl]-2-[3-fluoro-5-(trifluoromethyl)phenyl]-2-hydroxy-acetamide] | 1 to 25 nM | 26 to 50 nM | 
10 | Cc1cc(NC(=O)C(O)c2cccc(F)c2)ccc1-c1nc(C)n2ccnc(N)c12 (centres unmarked) [Example 1, N-(4-(8-amino-3-methylimidazo[1,5-a]pyrazin-1-yl)-3-methylphenyl)-2-(3-fluorophenyl)-2-hydroxyacetamide] | 1 to 25 nM | 26 to 50 nM | 
